SMILES strings stand for the structures.

A short description of this series: solvent given as SMILES.

`FC(F)(F)c1ccc(C2=CC3=c4cc(-c5ccc(C(F)(F)F)cc5)c5nc(C(F)(F)C(F)(F)C(F)(F)F)nc6c(-c7ccc(C(F)(F)F)cc7)cc(c4c65)C4=CC(c5ccc(C(F)(F)F)cc5)=C5N=C(C(F)(F)C(F)(F)C(F)(F)F)N=C2C5C43)cc1` (configuration not stated): the emission maximum (in C1CCOC1) was determined as 512 nm.

Under “in ClCCl”, `Cc1cc(-c2nc3c4ccccc4c4ccccc4c3n2-c2ccc(C(C)(C)C)cc2)ccc1-c1ccc(-c2c(-c3ccccc3)nc3ccccn23)cc1` showed an emission maximum of 416 nm.

For `Cc1nc2c(ccc3c2sc(/C=C/c2ccc(N(CCO)CCO)cc2)[n+]3C)s1`, the emission maximum by setting is: (in CO) 601 nm; (in ClC(Cl)Cl) 603 nm.

For the setting “in ClCCl”, `COc1ccc(-c2ccc(-c3cc(-c4ccccn4)nc(-c4ccccn4)c3)cc2)cc1` gave an emission maximum of 403 nm.

Under “in O”, `COc1ccc(-c2cc(N3CCCCC3)c(C#N)c3c2-c2cccc4cccc-3c24)cc1` returned an emission maximum of 552 nm.

As for `N#Cc1ccc(N/N=C/c2ccc3ccccc3c2O)cc1`, the emission maximum is, setting by setting: (in CC#N) 446 nm; (in CCCCCC) 415 nm; (in CO) 482 nm; (in CS(C)=O) 456 nm; (in ClC(Cl)Cl) 425 nm.

For `CCCCC[n+]1ccc(/C=C/c2ccc(N(C)C)c3ccccc23)c2ccccc21`, the emission maximum (in C1CCOC1) is 697 nm; the emission maximum (in C1COCCO1) is recorded as 680 nm; the emission maximum (in CC#N) stood at 720 nm; the emission maximum (in CC(C)=O) worked out at 714 nm; the emission maximum (in CCCCO) is recorded as 695 nm; the emission maximum (in CCO) was found to be 670 nm. Moreover, the emission maximum runs as follows: (in CN(C)C=O) 721 nm; (in CO) 708 nm; (in CS(C)=O) 720 nm; (in O) 697 nm; (in c1ccccc1) 675 nm; (in c1ccncc1) 706 nm.

`N#Cc1nn(-c2ccc(Cl)cc2)nc1N1CCCC1` gave an emission maximum (in CC#N) of 429 nm.

For the compound `CCCCCOc1cc2oc(=O)c3c4ccc(N)cc4c4ccc5cccc6c(c1)c2c3c4c56`, the emission maximum (in C1CCOC1) was found to be 550 nm.

`CN(C)c1ccc2c(c1)[Si](C)(C)C1=CC(=[N+](C)C)C=CC1=C2C#Cc1ccccc1`: the emission maximum is, setting by setting: (in CO) 738 nm; (in O) 736 nm.

Regarding `CC(C)(C)c1cc2cc(N(c3ccccc3)c3ccccc3)c3cc(C(C)(C)C)cc4cc(N(c5ccccc5)c5ccccc5)c(c1)c2c43`, the emission maximum is, setting by setting: (in C1CCOC1) 466.72 nm; (in CC#N) 497.22 nm; (in CCCCCC) 426 nm.

Consider `c1cc(N2CCCC2)ccn1`, for which the emission maximum is, setting by setting: (in CC1CCCCC1) 313 nm; (in CCO) 313 nm; (in ClC(Cl)Cl) 313 nm.

The compound `c1ccc2c(C3=C(c4cccc5ccccc45)c4cccc5c4c(cc4nc6ccccc6nc45)O3)cccc2c1` showed an emission maximum (in ClCCl) of 538 nm.

As to `CC1(C)Nc2cc(Cl)ccc2-c2[nH]c3ccccc3c(=O)c21`, the emission maximum runs as follows: (in C1CCOC1) 474 nm; (in CC#N) 496 nm; (in CCCCO) 505 nm; (in CCCO) 505 nm; (in CCO) 506 nm; (in CCOC(C)=O) 482 nm. Further, the emission maximum runs as follows: (in CN(C)C=O) 493 nm; (in CO) 513 nm; (in CS(C)=O) 494 nm; (in Cc1ccccc1) 460 nm; (in ClC(Cl)(Cl)Cl) 451 nm; (in ClCCl) 473 nm. Moreover, the emission maximum is, setting by setting: (in O) 536 nm; (in c1ccccc1) 462 nm.

The compound `F[B-]1(F)OC(c2ccc(N3CCCCC3)cc2)=Cc2cccc[n+]21` came in with an emission maximum (in ClC(Cl)Cl) of 499 nm.

`[NH3+]C(Cc1ccc(O)c(O)c1)C(=O)[O-]` (configuration not stated): the emission maximum (in O) is listed as 318 nm.

Compound `Cc1ccc2c(c1)C1(c3ccccc3-c3ccccc31)c1cc(C)ccc1N2c1ccc2c(c1)Sc1ccccc1P2(=O)c1ccccc1` (configuration not stated) returned an emission maximum (in Cc1ccccc1) of 454.61 nm.

Take `CCCCC1(c2ccccc2)Nc2c(-c3ccc(OC)cc3)ccc(-c3ccc(OC)cc3)c2N=C1c1ccccc1` (configuration not stated): the emission maximum reads like this: (in C1CCOC1) 547 nm; (in CC#N) 556 nm; (in CCCCCC) 517 nm; (in CN(C)C=O) 568 nm; (in Cc1ccccc1) 525 nm; (in ClC(Cl)Cl) 537 nm.

Take `CCCCCCOc1cc(N(CC)CC)ccc1/C=C(\C#N)c1ccc(/C=C/C(=C(C#N)C#N)c2ccc3c(c2)c2ccccc2n3CC)s1`: the emission maximum (in ClCCl) is recorded as 742 nm.

On to `CN(C)c1ccc2nc(-c3ccccc3)sc2c1Cl`, for which the emission maximum by setting is: (in C1CCCCC1) 389 nm; (in CC#N) 466 nm; (in CC(C)O) 477.17 nm; (in CO) 472 nm; (in CS(C)=O) 465.05 nm; (in ClC(Cl)Cl) 437 nm. This compound also registered an emission maximum (in c1ccccc1) of 425.86 nm.

In turn, `Cc1cc(C)c(C2=C3C=CC4=[N+]3[B-]3(Oc5ccccc54)Oc4ccccc4-c4ccc2n43)c(C)c1` (configuration not stated) displayed an emission maximum (in ClC(Cl)Cl) of 645 nm.

Compound `C[Si](C)(C)c1ccc([Si](C)(C)C)c2ccccc12` showed an emission maximum (in C1CCCCC1) of 333 nm.

`CCOC(=O)/C(C)=C/C1=C(c2ccc(C)cc2)C2=Nc3c(-c4ccc(C)cc4)c(Br)c(-c4ccc(C)cc4)n3[B-](F)(F)[N+]2=C1c1ccc(C)cc1` came in with an emission maximum (in ClC(Cl)Cl) of 702 nm.

`CCC12C(=C3C(=C4c5ccc(-c6ccc(C(C)=O)cc6)cc5S(=O)(=O)C41CC)C(F)(F)C(F)(F)C3(F)F)c1ccc(-c3ccc(C(C)=O)cc3)cc1S2(=O)=O` (configuration not stated) came in with an emission maximum (in C1COCCO1) of 561.95 nm.

`O=C1c2ccccc2C2=Cc3ccc4ccccc4[n+]3[B-](F)(F)N12` returned an emission maximum (in CCO) of 465 nm, an emission maximum (in Cc1ccccc1) of 474 nm and an emission maximum (in ClCCl) of 464 nm.

`CCCCCCN(CCCCCC)c1ccc(C#Cc2ccc(C#Cc3ccc(-c4ccc(C#Cc5ccc(C#Cc6ccc(N(CCCCCC)CCCCCC)cc6)cc5)cc4)cc3)cc2)cc1` displayed an emission maximum (in Cc1ccccc1) of 433 nm.

Turning to `CN(C)c1ccc(-c2cc(-c3ccc(N(C)C)cc3)ncn2)cc1`, the emission maximum (in ClCCl) was 429 nm.

As to `O=P1(c2ccccc2)c2ccc(N3c4ccccc4Sc4ccccc43)cc2-c2cc(N3c4ccccc4Sc4ccccc43)ccc21`, the emission maximum by setting is: (in Cc1ccccc1) 559 nm; (in c1ccc2c(c1)c1ccccc1n2-c1ccc(-c2ccc(-n3c4ccccc4c4ccccc43)cc2)cc1) 555 nm.

Consider `O=C(c1ccc(C(=O)c2ccc(N3c4ccccc4Oc4ccccc43)cc2)cc1)c1ccc(N2c3ccccc3Oc3ccccc32)cc1`, for which the emission maximum by setting is: (in Cc1ccccc1) 600 nm; (in c1cc(-c2cccc(-n3c4ccccc4c4ccccc43)c2)cc(-n2c3ccccc3c3ccccc32)c1) 555 nm.

With `FC(F)(F)c1cc2n(n1)[B-]1(c3ccccc3-c3ccccc31)[n+]1ccc3ccccc3c1-2`, the emission maximum runs as follows: (in C1CCCCC1) 490 nm; (in Cc1ccccc1) 538 nm; (in ClCCl) 564 nm.

`N#CC1=C(N)n2c(=O)c3ccccc3c(=O)n2C1c1ccc([N+](=O)[O-])cc1` (configuration not stated) registered an emission maximum (in CS(C)=O) of 575 nm.

Compound `Cc1ccc(C2=Cc3c4ccccc4cc[n+]3[B-](F)(F)O2)cc1` displayed an emission maximum (in ClC(Cl)Cl) of 471 nm.

In the case of `CCCCCCCCn1c(=O)c2cc3cc4cc5c(=O)n(CCCCCCCC)c(=O)c5cc4c(C#Cc4ccc(N(c5ccccc5)c5ccccc5)cc4)c3cc2c1=O`, the emission maximum (in ClC(Cl)Cl) was 611 nm.

For the setting “in ClC(Cl)Cl”, `Cc1ccc(N(c2ccc(C)cc2)c2ccc(-c3ccc(C=C(C#N)C#N)s3)cc2)cc1` displayed an emission maximum of 670 nm.

As for `O=C(c1ccc(/C(=C(/c2ccccc2)c2ccc(C(=O)c3ccc(-n4c5ccccc5c5ccccc54)cc3)cc2)c2ccccc2)cc1)c1ccc(-n2c3ccccc3c3ccccc32)cc1`, under “in C1CCOC1”, the emission maximum was 502 nm.

`Oc1ccccc1-c1nc2c3cccnc3c3ncccc3c2n1-c1ccccc1`: under “in Cc1ccccc1”, the emission maximum was found to be 379 nm.

In turn, `CCN(CC)c1ccc(-c2nc3c4ccccc4n(C)c3nc2-c2ccc([B-](F)(c3c(C)cc(C)cc3C)c3c(C)cc(C)cc3C)cc2)cc1` came in with an emission maximum (in C1CCOC1) of 508.44 nm.

In turn, `C1=Cc2nc1c(-c1ccccc1)c1ccc([nH]1)c(-c1ccccc1)c1cc(c(-c3ccccc3)c3ccc([nH]3)c2-c2ccccc2)N=C1` registered an emission maximum (in ClCCl) of 744 nm.

As to `Cc1cc2nc3c(=O)[nH]c(=O)nc-3n(C)c2cc1C`, for the setting “in CC#N”, the emission maximum was 533 nm.

As for `C[SiH](C)c1cccc2ccccc12`, under “in C1CCCCC1”, the emission maximum stood at 328 nm.

In the case of `CN(C)c1ccc(-c2cc(-c3cccs3)nc(-c3ccccc3)n2)cc1`, the emission maximum (in ClC(Cl)Cl) is listed as 473 nm.

`CN(C)c1ccc(C2=Nc3sc4cc(C(F)(F)F)ccc4[n+]3[B-](F)(F)O2)cc1`: the emission maximum is 486 nm (in C1CCOC1); 500 nm (in CC#N); 495 nm (in CC(C)=O); 460 nm (in Cc1ccccc1); 478 nm (in ClCCl).

With `COc1ccc(N(c2ccc(C=C(c3ccccc3)c3ccccc3)cc2)c2ccc(C=C(c3ccccc3)c3ccccc3)cc2)cc1`, the emission maximum (in Cc1ccccc1) stood at 477 nm.

Turning to `CN(C)c1cc2c(cc1F)c(=O)c1cc(F)c(N(C)C)cc1n2C`, the emission maximum (in CCO) was determined as 441 nm.

In the case of `CC[N+]1(CC)CN2C(=N1)C(C(=O)O)=Cc1cc(Oc3ccccc3)ccc12`, the emission maximum (in O) is 485 nm.

For the compound `NS(=O)(=O)c1ccc(N2N=C(c3ccc(O)cc3)CC2c2ccc(Cl)cc2)cc1` (configuration not stated), the emission maximum is 418 nm (in C1CCOC1); 417 nm (in C1COCCO1); 417 nm (in CC#N); 423 nm (in CC(C)O); 427 nm (in CCO); 416 nm (in CCOC(C)=O). The emission maximum was found to be 422 nm (in CN(C)C=O), 431 nm (in CO), 424 nm (in CS(C)=O) and 448 nm (in O).

On to `CC(=O)c1c(N[C@@H](CC(C)C)C(=O)O)c2ccc(N(C)C)cc2oc1=O`, for which, where the note is “in ClCCl”, the emission maximum amounted to 446 nm.

For the setting “in ClC(Cl)Cl”, `CCCCCCc1cc2c3cscc3c3cc(CCCCCC)sc3c2s1` yielded an emission maximum of 442 nm.

The record behind these values is the Deep4Chem optical property database.
